Source: a compilation of properties of binary mixtures (doi:10.1016/j.jct.2019.106017)

Assay: xn = mol fraction of the nth substance listed
Conditions: 99.7 kPa

| viscosity (303.15 K, x2 = 0.7343) [mPa·s] | viscosity (303.15 K, x2 = 0.917) [mPa·s] | viscosity (313.15 K, x2 = 0.4086) [mPa·s] | viscosity (313.15 K, x2 = 0.7343) [mPa·s] | viscosity (313.15 K, x2 = 0.917) [mPa·s] | viscosity (323.15 K, x2 = 0.4086) [mPa·s] | viscosity (323.15 K, x2 = 0.7343) [mPa·s] | viscosity (323.15 K, x2 = 0.917) [mPa·s] | viscosity (333.15 K, x2 = 0.4086) [mPa·s] | viscosity (333.15 K, x2 = 0.7343) [mPa·s] | viscosity (333.15 K, x2 = 0.917) [mPa·s] | viscosity (303.15 K, x1 = 1) [mPa·s] | viscosity (313.15 K, x1 = 1) [mPa·s] | viscosity (333.15 K, x1 = 1) [mPa·s] | SMILES |
| --- | --- | --- | --- | --- | --- | --- | --- | --- | --- | --- | --- | --- | --- | --- |
| 5.22 | 2.84 | 26.1 | 5.01 | 2.61 | 18.1 | 4.81 | 2.36 | 12.9 | 4.62 | 2.16 | – | – | – | CCCCCCCCn1cc[n+](C)c1.F[B-](F)(F)F + CC1COC(=O)O1 |
| – | – | – | – | – | – | – | – | – | – | – | 2.21 | 2 | 1.6 | CC1COC(=O)O1 (centres undefined) + CCCCCCCCn1cc[n+](C)c1.F[B-](F)(F)F |
